Results taken from patent US10590078B2, “Sodium channel blockers” (Daewoong Pharmaceutical Co., Ltd., priority 2015, dated 2020).

Target: human sodium ion channel 1.7 (hNav1.7) (Homo sapiens, UniProt Q15858)
Assay: Blocking effect against sodium ion channel Nav1.7, IonFlux16 auto patch clamp in hNav1.7 HEK293 cells
Format: cell-based
Settings: hNav1.7 HEK293 cells; inhibition of peak current after 50 seconds treatment; eight concentrations; read-out: IC50

Sequence of human sodium ion channel 1.7 (hNav1.7) (Q15858 whole entry): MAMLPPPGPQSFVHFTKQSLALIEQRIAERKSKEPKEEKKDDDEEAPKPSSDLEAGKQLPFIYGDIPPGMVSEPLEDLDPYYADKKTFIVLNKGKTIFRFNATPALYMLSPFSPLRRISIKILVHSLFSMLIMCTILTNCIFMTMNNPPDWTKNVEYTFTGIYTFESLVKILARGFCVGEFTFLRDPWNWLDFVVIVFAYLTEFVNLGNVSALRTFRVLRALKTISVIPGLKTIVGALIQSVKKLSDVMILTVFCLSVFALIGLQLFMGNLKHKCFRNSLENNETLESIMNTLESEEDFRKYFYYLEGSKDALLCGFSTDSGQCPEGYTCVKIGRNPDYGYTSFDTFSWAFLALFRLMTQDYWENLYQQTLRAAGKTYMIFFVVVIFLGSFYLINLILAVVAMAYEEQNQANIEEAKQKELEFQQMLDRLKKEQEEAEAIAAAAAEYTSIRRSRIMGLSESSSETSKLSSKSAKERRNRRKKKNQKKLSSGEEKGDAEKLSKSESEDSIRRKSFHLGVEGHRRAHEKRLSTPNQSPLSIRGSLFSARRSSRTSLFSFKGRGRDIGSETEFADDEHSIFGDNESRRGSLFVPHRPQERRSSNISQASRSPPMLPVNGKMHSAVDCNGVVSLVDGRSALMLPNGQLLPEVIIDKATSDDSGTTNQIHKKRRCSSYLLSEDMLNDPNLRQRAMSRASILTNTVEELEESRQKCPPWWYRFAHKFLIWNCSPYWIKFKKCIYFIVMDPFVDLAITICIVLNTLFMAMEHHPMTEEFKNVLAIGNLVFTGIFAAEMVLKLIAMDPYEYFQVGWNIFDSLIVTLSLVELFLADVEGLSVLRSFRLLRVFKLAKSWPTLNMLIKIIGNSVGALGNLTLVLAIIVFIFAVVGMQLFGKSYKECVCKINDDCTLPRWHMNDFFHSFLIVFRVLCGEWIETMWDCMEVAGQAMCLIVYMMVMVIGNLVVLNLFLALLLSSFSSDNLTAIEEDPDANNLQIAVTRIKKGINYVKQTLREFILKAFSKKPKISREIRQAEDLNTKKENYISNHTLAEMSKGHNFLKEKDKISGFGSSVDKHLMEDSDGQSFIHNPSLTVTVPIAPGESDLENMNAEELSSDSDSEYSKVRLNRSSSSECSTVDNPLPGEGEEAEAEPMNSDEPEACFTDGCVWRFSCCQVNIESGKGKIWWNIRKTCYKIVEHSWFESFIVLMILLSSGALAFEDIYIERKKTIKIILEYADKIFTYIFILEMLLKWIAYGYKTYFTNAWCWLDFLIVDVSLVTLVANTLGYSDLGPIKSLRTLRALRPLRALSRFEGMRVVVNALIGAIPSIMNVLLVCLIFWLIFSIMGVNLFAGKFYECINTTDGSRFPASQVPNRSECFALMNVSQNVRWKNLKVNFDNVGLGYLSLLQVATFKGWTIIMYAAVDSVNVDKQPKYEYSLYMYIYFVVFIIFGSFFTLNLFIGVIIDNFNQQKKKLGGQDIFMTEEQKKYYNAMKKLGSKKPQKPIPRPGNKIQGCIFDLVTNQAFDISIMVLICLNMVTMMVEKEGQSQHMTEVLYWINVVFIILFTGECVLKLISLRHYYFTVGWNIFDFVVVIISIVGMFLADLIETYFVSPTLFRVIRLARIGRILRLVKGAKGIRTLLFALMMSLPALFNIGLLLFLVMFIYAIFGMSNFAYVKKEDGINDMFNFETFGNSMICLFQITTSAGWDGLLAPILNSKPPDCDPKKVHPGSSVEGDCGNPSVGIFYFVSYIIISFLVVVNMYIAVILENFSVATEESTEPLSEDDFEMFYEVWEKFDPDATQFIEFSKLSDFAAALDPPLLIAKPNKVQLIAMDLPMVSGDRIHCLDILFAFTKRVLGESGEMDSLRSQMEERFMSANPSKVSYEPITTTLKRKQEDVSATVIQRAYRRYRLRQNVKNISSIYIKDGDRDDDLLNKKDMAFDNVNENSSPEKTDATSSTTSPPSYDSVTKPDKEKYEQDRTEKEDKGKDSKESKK

Row | IC50 | SMILES
1 | 0.31 µM | CS(=O)(=O)NC(=O)c1ccc(-n2nc(-c3ccc(C(F)(F)F)cc3)c3cc(Cl)ccc32)c(F)c1 [Example 122, 4-(5-chloro-3-(4-(trifluoromethyl)phenyl)-1H-indazol-1-yl)-3-fluoro-N-(methylsulfonyl)benzamide]
2 | 0.037 µM | CS(=O)(=O)NC(=O)c1cc(Cl)c(-n2nc(-c3cc(Cl)ccc3F)c3cc(Cl)ccc32)cc1F [Example 69, 5-chloro-4-(5-chloro-3-(5-chloro-2-fluorophenyl)-1H-indazol-1-yl)-2-fluoro-N-(methylsulfonyl)benzamide]
3 | 0.088 µM | COc1ccc(-c2ccc3c(c2)c(Cl)nn3-c2cc(F)c(C(=O)NS(C)(=O)=O)cc2Cl)cc1 [Example 248, 5-chloro-4-(3-chloro-5-(4-methoxyphenyl)-1H-indazol-1-yl)-2-fluoro-N-(methylsulfonyl)benzamide]
4 | > 10 µM | CS(=O)(=O)NC(=O)c1cc(Cl)c(-n2nc(-c3cccnc3)c3ccccc32)cc1F [Example 180, 5-chloro-2-fluoro-N-(methylsulfonyl)-4-(3-(pyridin-3-yl)-1H-indazol-1-yl)benzamide]
5 | 0.752 µM | CS(=O)(=O)NC(=O)c1cc(F)c(-n2nc(-c3ccccc3F)c3cc(Cl)ccc32)cc1Cl [Example 113, 2-chloro-4-(5-chloro-3-(2-fluorophenyl)-1H-indazol-1-yl)-5-fluoro-N-(methylsulfonyl)benzamide]
6 | 3 µM | COc1ncccc1-c1nn(-c2cc(Cl)c(C(=O)NS(C)(=O)=O)cc2F)c2ccc(Cl)cc12 [Example 116, 2-chloro-4-(5-chloro-3-(2-methoxypyridin-3-yl)-1H-indazol-1-yl)-5-fluoro-N-(methylsulfonyl)benzamide]
7 | > 10 µM | CCOC(=O)c1cnc(NC(=O)c2cc(Cl)c(-n3nc(-c4ccc(Cl)cc4F)c4cc(Cl)ccc43)cc2F)s1 [Example 296, ethyl 2-(5-chloro-4-(5-chloro-3-(4-chloro-2-fluorophenyl)-1H-indazol-1-yl)-2-fluorobenzamido)thiazole-5-carboxylate]
8 | 0.12 µM | CS(=O)(=O)NC(=O)c1cc(Cl)c(-n2nc(/C=C/c3ccccc3)c3cc(Cl)ccc32)cc1F [Example 133, (E)-5-chloro-4-(5-chloro-3-styryl-1H-indazol-1-yl)-2-fluoro-N-(methylsulfonyl)benzamide]
9 | 0.048 µM | CS(=O)(=O)NC(=O)c1cc(Cl)c(-n2nc(-c3ccccc3Cl)c3cc(Cl)ccc32)cc1F [Example 71, 5-chloro-4-(5-chloro-3-(2-chlorophenyl)-1H-indazol-1-yl)-2-fluoro-N-(methylsulfonyl)benzamide]
10 | 0.08 µM | Cc1cccc(-c2nn(-c3cc(F)c(C(=O)NS(C)(=O)=O)cc3Cl)c3ccc(F)cc23)c1 [Example 152, 5-chloro-2-fluoro-4-(5-fluoro-3-(m-tolyl)-1H-indazol-1-yl)-N-(methylsulfonyl)benzamide]
11 | 1.93 µM | Cc1ncc(-c2nn(-c3cc(F)c(C(=O)NS(C)(=O)=O)cc3Cl)c3ccc(Cl)cc23)s1 [Example 91, 5-chloro-4-(5-chloro-3-(2-methylthiazol-5-yl)-1H-indazol-1-yl)-2-fluoro-N-(methylsulfonyl)benzamide]
12 | 0.837 µM | CS(=O)(=O)NC(=O)c1cc(Cl)c(-n2nc(-c3cccc(C#N)c3)c3ccccc32)cc1F [Example 181, 5-chloro-4-(3-(3-cyanophenyl)-1H-indazol-1-yl)-2-fluoro-N-(methylsulfonyl)benzamide]
13 | 0.2 µM | COc1cc(F)ccc1-c1cn(-c2cc(F)c(C(=O)NS(C)(=O)=O)cc2Cl)c2ncc(Cl)cc12 [Example 199, 5-chloro-4-(5-chloro-3-(4-fluoro-2-methoxyphenyl)-1H-pyrrolo[2,3-b]pyridin-1-yl)-2-fluoro-N-(methylsulfonyl)benzamide]
14 | 0.23 µM | CS(=O)(=O)NC(=O)c1cc(Cl)c(-n2cc(-c3ccc(Cl)c(F)c3)c3cccnc32)cc1F [Example 223, 5-chloro-4-(3-(4-chloro-3-fluorophenyl)-1H-pyrrolo[2,3-b]pyridin-1-yl)-2-fluoro-N-(methylsulfonyl)benzamide]
15 | 3.89 µM | CS(=O)(=O)NC(=O)c1ccc(-n2nc(-c3ccc(C#N)cc3)c3cc(Cl)ccc32)c(F)c1 [Example 120, 4-(5-chloro-3-(4-cyanophenyl)-1H-indazol-1-yl)-3-fluoro-N-(methylsulfonyl)benzamide]
16 | 0.48 µM | Cc1cc(Cl)ccc1-c1ccc2c(c1)c(Cl)nn2-c1cc(F)c(C(=O)NS(C)(=O)=O)cc1Cl [Example 253, 5-chloro-4-(3-chloro-5-(4-chloro-2-methylphenyl)-1H-indazol-1-yl)-2-fluoro-N-(methylsulfonyl)benzamide]
17 | 0.2 µM | CN(C)S(=O)(=O)NC(=O)c1cc(Cl)c(-n2nc(Cl)c3cc(OCc4ccccc4)ccc32)cc1F [Example 43, 4-(5-(benzyloxy)-3-chloro-1H-indazol-1-yl)-5-chloro-N—(N,N-dimethylsulfamoyl)-2-fluorobenzamide]

Row | IC50 | SMILES
18 | 0.03 µM | CS(=O)(=O)NC(=O)c1cc(Cl)c(-n2nc(-c3cc(F)cc(Cl)c3)c3cc(Cl)ccc32)cc1F [Example 73, 5-chloro-4-(5-chloro-3-(3-chloro-5-fluorophenyl)-1H-indazol-1-yl)-2-fluoro-N-(methylsulfonyl)benzamide]
19 | 0.28 µM | CS(=O)(=O)NC(=O)c1cc(Cl)c(-n2cc(-c3ccc(Cl)cc3)c3cccnc32)cc1F [Example 224, 5-chloro-4-(3-(4-chlorophenyl)-1H-pyrrolo[2,3-b]pyridin-1-yl)-2-fluoro-N-(methylsulfonyl)benzamide]
20 | 0.957 µM | CS(=O)(=O)NC(=O)c1ccc(-n2nc(-c3ccc(F)cc3F)c3cc(Cl)ccc32)c(C#N)c1 [Example 105, 4-(5-chloro-3-(2,4-difluorophenyl)-1H-indazol-1-yl)-3-cyano-N-(methylsulfonyl)benzamide]
21 | > 10 µM | COC(=O)c1nn(-c2cc(F)c(C(=O)NS(C)(=O)=O)cc2Cl)c2cc(OCc3ccccc3)ccc12 [Example 46, methyl 6-(benzyloxy)-1-(2-chloro-5-fluoro-4-((methylsulfonyl)carbamoyl)phenyl)-1H-indazole-3-carboxylate]
22 | 0.08 µM | CS(=O)(=O)NC(=O)c1cc(Cl)c(-n2nc(-c3ccc(F)cc3Cl)c3cc(F)ccc32)cc1F [Example 158, 5-chloro-4-(3-(2-chloro-4-fluorophenyl)-5-fluoro-1H-indazol-1-yl)-2-fluoro-N-(methylsulfonyl)benzamide]
23 | 2.32 µM | CS(=O)(=O)NC(=O)c1cc(Cl)c(-n2nc(Cl)c3cc(-c4cccnc4F)ccc32)cc1F [Example 244, 5-chloro-4-(3-chloro-5-(2-fluoropyridin-3-yl)-1H-indazol-1-yl)-2-fluoro-N-(methylsulfonyl)benzamide]
24 | 0.04 µM | CS(=O)(=O)NC(=O)c1cc(Cl)c(-n2cc(-c3ccc(Cl)cc3Cl)c3cc(F)cnc32)cc1F [Example 209, 5-chloro-4-(3-(2,4-dichlorophenyl)-5-fluoro-1H-pyrrolo[2,3-b]pyridin-1-yl)-2-fluoro-N-(methylsulfonyl)benzamide]
25 | 0.133 µM | CS(=O)(=O)NC(=O)c1cc(Cl)c(-n2cc(Cl)c3cc(Cl)ccc32)cc1F [Example 266, 5-chloro-4-(3,5-dichloro-1H-indol-1-yl)-2-fluoro-N-(methylsulfonyl)benzamide]
26 | 0.07 µM | CS(=O)(=O)NC(=O)c1cc(Cl)c(-n2nc(-c3cccc(Cl)c3)c3ccccc32)cc1F [Example 170, 5-chloro-4-(3-(3-chlorophenyl)-1H-indazol-1-yl)-2-fluoro-N-(methylsulfonyl)benzamide]
27 | 0.54 µM | CS(=O)(=O)NC(=O)c1cc(Cl)c(-n2nc(-c3ccccc3Cl)c3cc(F)ccc32)cc1F [Example 144, 5-chloro-4-(3-(2-chlorophenyl)-5-fluoro-1H-indazol-1-yl)-2-fluoro-N-(methylsulfonyl)benzamide]
28 | 0.48 µM | CS(=O)(=O)NC(=O)c1cc(Cl)c(-n2cc(-c3cccc(C#N)c3)c3cc(Cl)cnc32)cc1F [Example 194, 5-chloro-4-(5-chloro-3-(3-cyanophenyl)-1H-pyrrolo[2,3-b]pyridin-1-yl)-2-fluoro-N-(methylsulfonyl)benzamide]
29 | 0.17 µM | CS(=O)(=O)NC(=O)c1cc(Cl)c(-n2cc(-c3ccccc3Cl)c3cc(Cl)cnc32)cc1F [Example 198, 5-chloro-4-(5-chloro-3-(2-chlorophenyl)-1H-pyrrolo[2,3-b]pyridin-1-yl)-2-fluoro-N-(methylsulfonyl)benzamide]
30 | 3 to 10 µM | O=S(=O)(Nc1ncns1)c1cc(F)c(-n2nc(Cl)c3cc(C(F)(F)F)ccc32)cc1F [Example 281, 4-(3-chloro-5-(trifluoromethyl)-1H-indazol-1-yl)-2,5-difluoro-N-(1,2,4-thiadiazol-5-yl)benzenesulfonamide]
31 | > 10 µM | NC(=O)c1cc(Cl)c(-n2nc(-c3ccc(Cl)cc3F)c3cc(Cl)ccc32)cc1F [Example 292, 5-chloro-4-(5-chloro-3-(4-chloro-2-fluorophenyl)-1H-indazol-1-yl)-2-fluorobenzamide]
32 | 0.97 µM | CS(=O)(=O)NC(=O)c1cc(Cl)c(-n2nc(-c3cnccc3F)c3ccccc32)cc1F [Example 177, 5-chloro-2-fluoro-4-(3-(4-fluoropyridin-3-yl)-1H-indazol-1-yl)-N-(methylsulfonyl)benzamide]
33 | > 10 µM | Cn1cc(-c2nn(-c3cc(F)c(C(=O)NS(C)(=O)=O)cc3Cl)c3ccc(Cl)cc23)ccc1=O [Example 130, 5-chloro-4-(5-chloro-3-(1-methyl-6-oxo-1,6-dihydropyridin-3-yl)-1H-indazol-1-yl)-2-fluoro-N-(methylsulfonyl)benzamide]
34 | 1.44 µM | CS(=O)(=O)NC(=O)c1cc(F)c(-n2nc(-c3cccc(F)c3)c3cc(Cl)ccc32)cc1Cl [Example 114, 2-chloro-4-(5-chloro-3-(3-fluorophenyl)-1H-indazol-1-yl)-5-fluoro-N-(methylsulfonyl)benzamide]

Row | SMILES | IC50
35 | CC(C)COc1ccc2c(c1)c(Cl)nn2-c1cc(F)c(C(=O)NS(C)(=O)=O)cc1Cl [Example 42, 5-chloro-4-(3-chloro-5-isobutoxy-1H-indazol-1-yl)-2-fluoro-N-(methylsulfonyl)benzamide] | 0.181 µM
